From patent publication US20150119394A1, “Insulin-Like Growth Factor-1 Receptor Inhibitors” (Merck Sharp & Dohme Corp., priority 2012, published 2015)
pIC50: −log10 of the molar value.

target: T1, intracellular kinase domain of human IGF-1R (GST fusion protein) (Homo sapiens, UniProt P08069); test: In vitro IGF-1R kinase assay (HTRF); type: biochemical; settings: ATP 20 μM, IGFRK 0.25 nM
T1 construct: IGFRK and IRK enzyme used for the assay was intracellular kinase domain of human IGF-1R; GST; made in house
Procedure: The in vitro kinase assays using IGF-1R and IR kinase GST fusion proteins were conducted using a homogeneous time-resolved fluorescence (HTRF) format. Kinase reactions were carried out in a 384-well plate format in a final volume of 20 μL. The standard enzyme reaction buffer consisted of 50 mM Tris HCL (pH: 7.4), 1 mM EGTA, 10 mM MgCl2, 2 mM DTT, 0.01% Tween-20, IGF-1R/IR kinase enzyme, poly GT peptide substrate (Perkin Elmer [Ulight Glu-Tyr (4:1)]n) and ATP [concentration equivalent to Kmapp] […] Briefly, 2.5 μL enzyme and 2.5 μL inhibitor was preincubated for 10 minutes at 23° C. followed by the addition of 2.5 μL of poly GT substrate (final concentration of 50 nM). Reaction was initiated with the addition of 2.5 μL of ATP (final concentration of 20 μM for IGF-1R assay and 10 μM for IR assay). After 1 hour incubation at 23° C., the kinase reaction was stopped with the addition of 5 μL EDTA (final concentration of 10 mM in 20 μL). Europium cryptate—labeled antiphosphotyrosine antibody PY20 (5 μL) was added (final concentration of 2 nM) and the mixture was allowed to equilibrate for 1 hour at 23° C. followed by reading the plate in an Envision plate reader.
The intensity of light emission at 665 nm was directly proportional to the level of substrate phosphorylation. The IC50 values for inhibitors were determined by a four-parameter sigmoidal curve fit (Sigma plot or Graph pad).
IGFRK and IRK enzyme used for the assay was intracellular kinase domain of human IGF-1R and human IR cloned and expressed as GST fusion proteins using the baculovirus expression system and purified using glutathione—Sepharose column.

T1 sequence (P08069 999-1274 limits assumed): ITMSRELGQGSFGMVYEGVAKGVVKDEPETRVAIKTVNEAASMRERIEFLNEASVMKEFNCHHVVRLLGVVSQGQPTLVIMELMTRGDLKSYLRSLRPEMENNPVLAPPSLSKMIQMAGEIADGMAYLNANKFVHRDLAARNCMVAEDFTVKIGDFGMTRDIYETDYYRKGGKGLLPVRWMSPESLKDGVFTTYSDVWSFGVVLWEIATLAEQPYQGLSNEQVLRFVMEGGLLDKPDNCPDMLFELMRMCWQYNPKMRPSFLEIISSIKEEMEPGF

| SMILES | pIC50 |
| --- | --- |
| COc1ccccc1-c1ccc(OC[C@@H]2CN(S(=O)(=O)c3c(C(N)=O)[nH]c4ccc(Cl)cc34)CCO2)cc1 [Compound 36, (S)-5-chloro-3-((2-(((2′-methoxy-[1,1′-biphenyl]-4-yl)oxy)methyl)morpholino)sulfonyl)-1H-indole-2-carboxamide] | 7.09 |
| COc1ccc(-c2ccc(OC[C@@H]3CN(S(=O)(=O)c4c(C(N)=O)[nH]c5ccc(Cl)cc45)CCO3)cc2)cn1 [Compound 37, (S)-5-chloro-3-((2-((4-(6-methoxypyridin-3-yl)phenoxy)methyl)morpholino)sulfonyl)-1H-indole-2-carboxamide] | 6.78 |
| NC(=O)c1[nH]c2ccc(Cl)cc2c1S(=O)(=O)N1CCO[C@H](COc2ccc(-c3ccccc3C(F)(F)F)cc2)C1 [Compound 38, (S)-5-chloro-3-((2-(((2′-(trifluoromethyl)-[1,1′-biphenyl]-4-yl)oxy)methyl)morpholino)sulfonyl)-1H-indole-2-carboxamide] | 6.95 |
| COc1ccc(-c2ccc(OC[C@@H]3CN(S(=O)(=O)c4c(C(N)=O)[nH]c5ccc(Cl)cc45)CCO3)cc2)cc1 [Compound 39, (S)-5-chloro-3-((2-(((4′-methoxy-[1,1′-biphenyl]-4-yl)oxy)methyl)morpholino)sulfonyl)-1H-indole-2-carboxamide] | 6.69 |
| NC(=O)c1[nH]c2ccc(Cl)cc2c1S(=O)(=O)N1CCO[C@H](COc2ccc(-c3ccccc3OC(F)(F)F)cc2)C1 [Compound 40, (S)-5-chloro-3-((2-(((2′-(trifluoromethoxy)-[1,1′-biphenyl]-4-yl)oxy)methyl)morpholino)sulfonyl)-1H-indole-2-carboxamide] | 6.44 |
| Cc1ccccc1-c1ccc(OC[C@@H]2CN(S(=O)(=O)c3c(C(N)=O)[nH]c4ccc(Cl)cc34)CCO2)cc1 [Compound 41, (S)-5-chloro-3-((2-(((2′-methyl-[1,1′-biphenyl]-4-yl)oxy)methyl)morpholino)sulfonyl)-1H-indole-2-carboxamide] | 6.74 |
| NC(=O)c1[nH]c2ccc(Cl)cc2c1S(=O)(=O)N1CCO[C@H](COc2ccc(-c3ccccc3F)cc2)C1 [Compound 42, (S)-5-chloro-3-((2-(((2′-fluoro-[1,1′-biphenyl]-4-yl)oxy)methyl)morpholino)sulfonyl)-1H-indole-2-carboxamide] | 6.92 |
| COc1ccccc1-c1ccc(OC[C@@H]2CN(S(=O)(=O)c3c(C(N)=O)[nH]c4ccc(Cl)cc34)CCO2)cc1 [Compound 43, (S)-5-chloro-3-((2-(((2′-methoxy-[1,1′-biphenyl]-4-yl)oxy)methyl)morpholino)sulfonyl)-1H-indole-2-carboxamide] | < 7.00 |
| COc1ncccc1-c1ccc(OC[C@@H]2CN(S(=O)(=O)c3c(C(N)=O)[nH]c4ccc(Cl)cc34)CCO2)cc1 [Compound 44, (S)-5-chloro-3-((2-((4-(2-methoxypyridin-3-yl)phenoxy)methyl)morpholino)sulfonyl)-1H-indole-2-carboxamide] | 7.33 |
| NC(=O)c1[nH]c2ccc(Cl)cc2c1S(=O)(=O)N1CCO[C@H](COc2ccc(-c3ccnc(F)c3)cc2)C1 [Compound 45, (S)-5-chloro-3-((2-((4-(2-fluoropyridin-4-yl)phenoxy)methyl)morpholino)sulfonyl)-1H-indole-2-carboxamide] | 7.92 |
| NC(=O)c1[nH]c2ccc(Cl)cc2c1S(=O)(=O)N1CCO[C@H](COc2ccc(-c3ccc(F)nc3)cc2)C1 [Compound 46, (S)-5-chloro-3-((2-((4-(6-fluoropyridin-3-yl)phenoxy)methyl)morpholino)sulfonyl)-1H-indole-2-carboxamide] | 7.89 |
| COc1cc(-c2ccc(OC[C@@H]3CN(S(=O)(=O)c4c(C(N)=O)[nH]c5ccc(Cl)cc45)CCO3)cc2)ccn1 [Compound 47, (S)-5-chloro-3-((2-((4-(2-methoxypyridin-4-yl)phenoxy)methyl)morpholino)sulfonyl)-1H-indole-2-carboxamide] | > 7.00 |
